The record followed here is BindingDB's records for doi:10.1021/jm00011a006 (University of Minnesota, 1995).

For this test, the target named is Aldehyde dehydrogenase (Saccharomyces cerevisiae). Put plainly: In vitro inhibition against yeast Aldehyde dehydrogenase.

The compound `CCOC(=O)On1nnc2ccccc21` [Carbonic acid benzotriazol-1-yl ester ethyl ester] had an IC50 of 270 µM.

`CCOC(=O)ON1C(=O)c2ccccc2S1(=O)=O` [Carbonic acid ethyl ester 1,1,3-trioxo-1,3-dihydro-1lambda*6*-benzo[d]isothiazol-2-yl ester]: the IC50 was determined as 56 µM.

In turn, `CCOC(=O)ON(C(=O)OCC)S(=O)(=O)c1ccc(Cl)cc1` [ethyl (4-chlorophenyl)sulfonyl[(ethoxycarbonyl)oxy]carbamate] registered an IC50 of 24 µM.
